Reference: patent US8802597B2, “Herbicidal pyrimidines” (E I du Pont de Nemours and Company, priority 2003, dated 2014)
Read-outs that look alike come from different tables or passages of the source.

How the values were obtained:
Test in all cases: Test C pre/postemergence
Format in all cases: in vivo
[1] = test system: morningglory (Ipomoea coccinea); conditions: Ipomoea; for pest or weed control at 31 g/ha: 31 g ai/ha; for pest or weed control at 62 g/ha: 62 g ai/ha; for pest or weed control at 125 g/ha: 125 g ai/ha; for pest or weed control at 250 g/ha: 250 g ai/ha
In short: (§1)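 We sprayed seeded pots preemergence and 2–18 cm seedlings postemergence with test chemicals in a non-phytotoxic solvent mixture including surfactant. Greenhouse plants were visually compared with untreated controls at 12 to 14 days and scored 0 (no effect) to 100 (complete control).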

[2] = test system: giant foxtail (Setaria faberii); conditions: Setaria faberi; for pest or weed control at 125 g/ha: 125 g ai/ha; for pest or weed control at 31 g/ha: 31 g ai/ha; for pest or weed control at 62 g/ha: 62 g ai/ha; for pest or weed control at 250 g/ha: 250 g ai/ha
In short: as §1

[3] = test system: yellow nutsedge (Cyperus esculentus); conditions: Cyperus; for pest or weed control at 31 g/ha: 31 g ai/ha; for pest or weed control at 62 g/ha: 62 g ai/ha; for pest or weed control at 125 g/ha: 125 g ai/ha; for pest or weed control at 250 g/ha: 250 g ai/ha
In short: as §1

[4] = test system: woolly cupgrass (Eriochloa villosa); conditions: Eriochloa villosa; for pest or weed control at 31 g/ha: 31 g ai/ha; for pest or weed control at 62 g/ha: 62 g ai/ha; for pest or weed control at 125 g/ha: 125 g ai/ha
In short: as §1

[5] = test system: pigweed (Amaranthus retroflexus); conditions: Amaranthus retroflexus; for pest or weed control at 31 g/ha: 31 g ai/ha; for pest or weed control at 62 g/ha: 62 g ai/ha; for pest or weed control at 125 g/ha: 125 g ai/ha; for pest or weed control at 250 g/ha: 250 g ai/ha
In short: as §1

kochia (Kochia scoparia) = conditions: Bassia scoparia; for pest or weed control at 31 g/ha: 31 g ai/ha
In short: as §1

[6] = post-emergence, Postemergence, scale 0 to 100 (0 no effect, 100 complete control), read-out: Morningglory plant response rating
[7] = pre-emergence, Preemergence, scale 0 to 100, 0 no effect, 100 complete control, read-out: Plant response rating, Morningglory
[8] = pre-emergence, Preemergence, scale 0 to 100, read-out: Plant response rating, Morningglory
[9] = post-emergence, Postemergence, scale 0 to 100 (0 no effect, 100 complete control), read-out: Foxtail, Giant plant response rating
[10] = pre-emergence, Preemergence, scale 0 to 100, 0 no effect, 100 complete control, read-out: Plant response rating, Foxtail, Giant
[11] = pre-emergence, Preemergence, scale 0 to 100, read-out: Plant response rating, Foxtail, Giant
[12] = post-emergence, Postemergence, scale 0 to 100 (0 no effect, 100 complete control), read-out: Nutsedge, Yellow plant response rating
[13] = pre-emergence, Preemergence, scale 0 to 100, 0 no effect, 100 complete control, read-out: Plant response rating, Nutsedge, Yellow
[14] = pre-emergence, Preemergence, scale 0 to 100, read-out: Plant response rating, Nutsedge, Yellow
[15] = post-emergence, Postemergence, scale 0 to 100 (0 no effect, 100 complete control), read-out: Cupgrass, Woolly plant response rating
[16] = pre-emergence, Preemergence, scale 0 to 100, 0 no effect, 100 complete control, read-out: Plant response rating, Cupgrass, Woolly
[17] = post-emergence, Postemergence, scale 0 to 100 (0 no effect, 100 complete control), read-out: Pigweed plant response rating
[18] = pre-emergence, Preemergence, scale 0 to 100, 0 no effect, 100 complete control, read-out: Plant response rating, Pigweed
[19] = pre-emergence, Preemergence, scale 0 to 100, read-out: Plant response rating, Pigweed

CCOC(=O)c1nc(-c2ccc(Cl)cc2)nc(N)c1Cl [Compound 64, ethyl 6-amino-5-chloro-2-(4-chlorophenyl)-4-pyrimidinecarboxylate]
pest or weed control at 31 g/ha ([1]; post-emergence, Postemergence, read-out: Plant response rating (scale of 0 to 100), Morningglory): 90% | pest or weed control at 62 g/ha [1, 6]: 90% | pest or weed control at 125 g/ha [1, 6]: 90% | pest or weed control at 250 g/ha ([1]; post-emergence, Postemergence, scale 0 to 100, read-out: Plant response rating, Morningglory): 90% | pest or weed control at 31 g/ha [1, 7]: 0% | pest or weed control at 62 g/ha [1, 7]: 0% | pest or weed control at 125 g/ha [1, 8]: 0% | pest or weed control at 250 g/ha [1, 8]: 10% | pest or weed control at 125 g/ha [2, 9]: 50% | pest or weed control at 31 g/ha ([2]; post-emergence, Postemergence, read-out: Plant response rating (scale of 0 to 100), Foxtail, Giant): 0% | pest or weed control at 62 g/ha [2, 9]: 20% | pest or weed control at 250 g/ha ([2]; post-emergence, Postemergence, scale 0 to 100, read-out: Plant response rating, Foxtail, Giant): 50% | pest or weed control at 31 g/ha [2, 10]: 0% | pest or weed control at 62 g/ha [2, 10]: 0% | pest or weed control at 125 g/ha [2, 11]: 0% | pest or weed control at 250 g/ha [2, 11]: 0% | pest or weed control at 31 g/ha ([3]; post-emergence, Postemergence, read-out: Plant response rating (scale of 0 to 100), Nutsedge, Yellow): 40% | pest or weed control at 62 g/ha [3, 12]: 50% | pest or weed control at 125 g/ha [3, 12]: 50% | pest or weed control at 250 g/ha ([3]; post-emergence, Postemergence, scale 0 to 100, read-out: Plant response rating, Nutsedge, Yellow): 50% | pest or weed control at 31 g/ha [3, 13]: 0% | pest or weed control at 62 g/ha [3, 13]: 0% | pest or weed control at 125 g/ha [3, 14]: 0% | pest or weed control at 250 g/ha [3, 14]: 10% | pest or weed control at 31 g/ha ([4]; post-emergence, Postemergence, read-out: Plant response rating (scale of 0 to 100), Cupgrass, Woolly): 30% | pest or weed control at 62 g/ha [4, 15]: 40% | pest or weed control at 125 g/ha [4, 15]: 65% | pest or weed control at 31 g/ha [4, 16]: 0% | pest or weed control at 62 g/ha [4, 16]: 0% | pest or weed control at 125 g/ha ([4]; pre-emergence, Preemergence, scale 0 to 100, read-out: Plant response rating, Cupgrass, Woolly): 0% | pest or weed control at 250 g/ha ([4]; pre-emergence, Preemergence, 250 g ai/ha, scale 0 to 100, read-out: Plant response rating, Cupgrass, Woolly): 40% | pest or weed control at 31 g/ha ([5]; post-emergence, Postemergence, read-out: Plant response rating (scale of 0 to 100), Pigweed): 85% | pest or weed control at 62 g/ha [5, 17]: 95% | pest or weed control at 125 g/ha [5, 17]: 100% | pest or weed control at 250 g/ha ([5]; post-emergence, Postemergence, scale 0 to 100, read-out: Plant response rating, Pigweed): 100% | pest or weed control at 31 g/ha [5, 18]: 10% | pest or weed control at 62 g/ha [5, 18]: 30% | pest or weed control at 125 g/ha [5, 19]: 100% | pest or weed control at 250 g/ha [5, 19]: 100% | pest or weed control at 31 g/ha (kochia (Kochia scoparia); post-emergence, Postemergence, read-out: Plant response rating (scale of 0 to 100), Kochia): 80% | pest or weed control at 62 g/ha (kochia (Kochia scoparia); post-emergence, Postemergence, 62 g ai/ha, scale 0 to 100 (0 no effect, 100 complete control), read-out: Kochia plant response rating): 85% | pest or weed control at 125 g/ha (kochia (Kochia scoparia); post-emergence, Postemergence, 125 g ai/ha, scale 0 to 100 (0 no effect, 100 complete control), read-out: Kochia plant response rating): 90% | pest or weed control at 250 g/ha (kochia (Kochia scoparia); post-emergence, Postemergence, 250 g ai/ha, scale 0 to 100, read-out: Plant response rating, Kochia): 90% | pest or weed control at 31 g/ha (kochia (Kochia scoparia); pre-emergence, Preemergence, scale 0 to 100, 0 no effect, 100 complete control, read-out: Plant response rating, Kochia): 20%
